Measured values taken from patent US5534498A, “Trypsin inhibitors” (Corvas International, Inc., priority 1993, dated 1996).

Key:
[1] = system: acute pancreatitis induced in animal models; details: literature reports; cited from earlier work
[2] = target: recombinant tissue plasminogen activator (Homo sapiens, UniProt P00750); assay: Tissue plasminogen activator assay (S-2288 substrate); type: biochemical; details: 30 min preincubation, room temperature; tested 0.025-25 μM; Inact. = no inhibition at highest concentration
Description: (§1) The specificity of the peptide aldehydes (8 through 12) was determined in vitro by measurement of their IC50 against other enzymes involved in hemostasis. A specific concentration of enzyme and its substrate were challenged with varying concentrations of inhibitor. […] Specific assay procedures used are presented below.
(§2) 96-well microtiter plates were prepared for use in these assays by incubating each well with 300 μL 1% bovine serum albumin (in deionized water) for 30 minutes at 37° C., then washing three times with deionized water.
(§3) The substrate was made up in deionized water prior to use.

[3] = target: plasmin (Homo sapiens, UniProt P00747); assay: Plasmin assay (S-2251 substrate); type: biochemical; parameters: 50 μL 25 nM human plasmin; details: 30 min preincubation, room temperature; tested 0.025-25 μM; Inact. = no inhibition at highest concentration
Description: as §1, §2, §3

[4] = target: T1, bovine trypsin (Bos taurus, UniProt P00760); assay: Trypsin assay, IC50 (S-2222 substrate); type: biochemical; details: 30 min preincubation, room temperature; tested 0.025-25 μM
T1 sequence (P00760 24-246): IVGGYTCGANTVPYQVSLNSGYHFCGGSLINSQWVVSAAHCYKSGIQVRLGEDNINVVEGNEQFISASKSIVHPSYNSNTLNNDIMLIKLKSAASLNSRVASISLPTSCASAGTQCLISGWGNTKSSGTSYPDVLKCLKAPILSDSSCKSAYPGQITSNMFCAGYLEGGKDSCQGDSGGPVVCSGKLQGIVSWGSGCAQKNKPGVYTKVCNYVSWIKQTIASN
Description: as §1, §2, §3

[5] = target: T2, Factor VIIa:rTF complex (Homo sapiens, UniProt P08709); assay: Factor VIIa assay (S-2288 substrate); type: biochemical; details: 30 min preincubation, room temperature; tested 0.025-25 μM; Inact. = no inhibition at highest concentration
T2 construct: 2.5 ml 400 nMhuman Factor VIIa
Description: (§4) The specificity of the peptide aldehydes (8 through 12) was determined in vitro by measurement of their IC50 against other enzymes involved in hemostasis. A specific concentration of enzyme and its substrate were challenged with varying concentrations of inhibitor. IC50 is that concentration of inhibitor giving 50% inhibition of substrate turnover, under the assay conditions. Specific assay procedures used are presented below.
as §2
Enzyme activity was determined using as substrate, S-2288 [D-isoleucyl-L-prolyl-L-arginine-p-nitroanilide dihydrochloride], purchased from Kabi Diagnostica. The substrate was made up in deionized water prior to use.
Both solutions were then incubated for 30 minutes at room temperature before use in the assay.
The assay was run by combining in appropriate wells 50 μL inhibitor in TBS or TBS alone and 100 μL of Factor VIIa:rTF complex or background control, incubating this mixture for 30 minutes at room temperature, adding 50 μL of 2 mM S-2288, incubating for an additional 30 to 60 minutes at room temperature, then reading the absorbance of the wells at 405 nm on a microtiter plate reader set with background substraction at 650 nm.

[6] = target: T3, Activated human Protein C (Homo sapiens, UniProt P04070); assay: Protein C assay (Pefachrome PC substrate); type: biochemical; details: 30 min preincubation, room temperature; tested 0.025-25 μM; Inact. = no inhibition at highest concentration
T3 construct: from tissue
Description: as §1, §2
Enzyme activity was determined using as substrate, Pefachrome PC [δ-carbobenzoloxy-D-lysyl-L-prolyl-L-arginine-p-nitroanilide], purchased from Centerchem, Inc. The substrate was made up in deionized water prior to use. Protac used to activate Protein C was obtained from American Diagnostics.

[7] = target: T4, human Factor Xa (Homo sapiens, UniProt P00742); assay: Factor Xa assay (Pefachrome Xa substrate); type: biochemical; details: 30 min preincubation, room temperature; tested 0.025-25 μM; Inact. = no inhibition at highest concentration
T4 construct: 50 μL 30 nM human Factor Xa
Description: as §1, §2
Enzyme activity was determined using as substrate, Pefachrome Xa [N-methoxycarbonyl-D-cyclohexylalanyl-L-glycyl-L-arginine p-niroanilide acetate], purchased from Centerchem, Inc. The substrate was made up in deionized water prior to use.

[8] = target: T5, bovine thrombin (Bos taurus, UniProt P00735); assay: Thrombin assay (S-2238 substrate); type: biochemical; details: 30 min preincubation, room temperature; tested 0.025-25 μM; Inact. = no inhibition at highest concentration
T5 construct: 50 μL 20 nM bovine thrombin
Description: as §4, §2
Enzyme activity was determined using as substrate, S-2238 [D-phenylalanyl-L-pipecolyl-L-arginine-p-nitroanilide dihydrochloride], purchased from Kabi Diagnostica. The substrate was made up in deionized water prior to use.
The assay was run by combining in appropriate wells 50 μL TBS and 50 μL inhibitor in TBS or TBS alone and 50 μL 20 nM bovine thrombin (or TBS as background control), incubating this mixture for 30 minutes at room temperature, adding 50 μL 1 mM S-2238, incubating for an additional 30 minutes at room temperature, then reading the absorbance of the wells at 405 nm on a microtiter plate reader set with background substraction at 650 nm.

[9] = system: trypsin; details: literature (Saino et al.); cited from earlier work
[10] = target: kallikrein; details: literature; cited from earlier work
[11] = system: human acute pancreatitis; details: literature reports; cited from earlier work
[12] = target: trypsin; details: literature (Jones); read-out: dissociation constant (Kd) trypsin; cited from earlier work

T2 sequence (P08709 213-466 limits assumed): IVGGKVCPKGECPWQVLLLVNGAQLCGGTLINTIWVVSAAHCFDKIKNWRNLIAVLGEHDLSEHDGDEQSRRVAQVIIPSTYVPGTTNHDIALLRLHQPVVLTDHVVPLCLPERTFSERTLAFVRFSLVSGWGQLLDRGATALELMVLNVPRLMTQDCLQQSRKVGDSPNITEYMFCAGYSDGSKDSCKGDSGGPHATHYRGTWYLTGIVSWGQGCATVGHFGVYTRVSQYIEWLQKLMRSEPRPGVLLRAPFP
T2 sequence (P08709 61-212 partner limits assumed): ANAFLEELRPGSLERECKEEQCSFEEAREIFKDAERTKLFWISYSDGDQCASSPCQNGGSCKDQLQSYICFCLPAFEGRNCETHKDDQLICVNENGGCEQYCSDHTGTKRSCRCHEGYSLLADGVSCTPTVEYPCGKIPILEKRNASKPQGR
T2 sequence (P13726 33-295 partner): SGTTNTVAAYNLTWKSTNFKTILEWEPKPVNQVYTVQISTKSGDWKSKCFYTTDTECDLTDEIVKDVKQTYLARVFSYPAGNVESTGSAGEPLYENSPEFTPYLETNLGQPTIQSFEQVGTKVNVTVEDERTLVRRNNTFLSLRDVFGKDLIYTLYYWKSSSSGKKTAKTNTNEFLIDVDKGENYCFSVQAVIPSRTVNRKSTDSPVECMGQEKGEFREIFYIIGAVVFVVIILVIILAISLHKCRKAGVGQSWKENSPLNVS
T4 sequence (P00742 235-488 limits assumed): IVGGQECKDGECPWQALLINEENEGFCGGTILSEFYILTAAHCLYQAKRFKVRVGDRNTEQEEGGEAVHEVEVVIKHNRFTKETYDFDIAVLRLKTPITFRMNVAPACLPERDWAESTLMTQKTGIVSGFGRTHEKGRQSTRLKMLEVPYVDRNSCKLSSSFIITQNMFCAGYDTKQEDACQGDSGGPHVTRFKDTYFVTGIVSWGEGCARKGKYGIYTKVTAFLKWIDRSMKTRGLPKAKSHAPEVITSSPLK
T4 sequence (P00742 41-179 partner limits assumed): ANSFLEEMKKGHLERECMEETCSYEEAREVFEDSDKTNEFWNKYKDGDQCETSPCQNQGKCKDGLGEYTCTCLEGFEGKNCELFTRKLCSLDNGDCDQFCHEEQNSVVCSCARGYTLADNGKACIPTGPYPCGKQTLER
T3 sequence (P04070 212-461 limits assumed): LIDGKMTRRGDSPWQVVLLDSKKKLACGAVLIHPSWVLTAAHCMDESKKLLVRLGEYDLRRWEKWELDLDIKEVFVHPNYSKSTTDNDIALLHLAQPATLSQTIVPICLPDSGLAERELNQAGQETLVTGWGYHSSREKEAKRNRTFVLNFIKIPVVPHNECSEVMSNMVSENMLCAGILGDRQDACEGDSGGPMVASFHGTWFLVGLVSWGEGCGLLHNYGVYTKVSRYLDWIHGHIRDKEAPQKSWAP
T3 sequence (P04070 43-197 partner limits assumed): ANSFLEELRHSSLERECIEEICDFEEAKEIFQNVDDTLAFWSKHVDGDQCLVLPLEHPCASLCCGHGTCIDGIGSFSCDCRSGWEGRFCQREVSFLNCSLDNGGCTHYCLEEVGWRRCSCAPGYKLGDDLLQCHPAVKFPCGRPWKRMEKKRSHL
Sequence of recombinant tissue plasminogen activator (P00750 36-562): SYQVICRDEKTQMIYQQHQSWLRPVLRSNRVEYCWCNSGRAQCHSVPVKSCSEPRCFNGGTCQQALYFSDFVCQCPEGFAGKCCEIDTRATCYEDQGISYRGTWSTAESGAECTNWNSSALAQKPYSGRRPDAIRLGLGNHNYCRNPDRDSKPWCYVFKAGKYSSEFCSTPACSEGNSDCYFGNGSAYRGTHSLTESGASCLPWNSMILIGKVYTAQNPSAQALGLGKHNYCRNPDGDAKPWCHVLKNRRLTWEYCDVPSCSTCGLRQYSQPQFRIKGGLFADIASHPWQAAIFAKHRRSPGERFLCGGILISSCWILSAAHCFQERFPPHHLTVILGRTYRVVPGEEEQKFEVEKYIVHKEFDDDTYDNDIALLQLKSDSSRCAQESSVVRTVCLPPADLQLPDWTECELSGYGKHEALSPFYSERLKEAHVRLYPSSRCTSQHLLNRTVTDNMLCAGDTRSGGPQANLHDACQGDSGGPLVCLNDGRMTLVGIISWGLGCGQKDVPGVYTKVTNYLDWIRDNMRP
Sequence of plasmin (P00747 581-810 limits assumed): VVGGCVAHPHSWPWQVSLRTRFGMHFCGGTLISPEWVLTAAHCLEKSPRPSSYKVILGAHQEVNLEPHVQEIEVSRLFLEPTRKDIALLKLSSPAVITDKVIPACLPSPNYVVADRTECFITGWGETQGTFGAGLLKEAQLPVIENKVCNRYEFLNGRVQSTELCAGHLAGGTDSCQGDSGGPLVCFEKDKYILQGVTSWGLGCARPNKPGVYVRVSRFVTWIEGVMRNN
Sequence of plasmin (P00747 97-580 partner limits assumed): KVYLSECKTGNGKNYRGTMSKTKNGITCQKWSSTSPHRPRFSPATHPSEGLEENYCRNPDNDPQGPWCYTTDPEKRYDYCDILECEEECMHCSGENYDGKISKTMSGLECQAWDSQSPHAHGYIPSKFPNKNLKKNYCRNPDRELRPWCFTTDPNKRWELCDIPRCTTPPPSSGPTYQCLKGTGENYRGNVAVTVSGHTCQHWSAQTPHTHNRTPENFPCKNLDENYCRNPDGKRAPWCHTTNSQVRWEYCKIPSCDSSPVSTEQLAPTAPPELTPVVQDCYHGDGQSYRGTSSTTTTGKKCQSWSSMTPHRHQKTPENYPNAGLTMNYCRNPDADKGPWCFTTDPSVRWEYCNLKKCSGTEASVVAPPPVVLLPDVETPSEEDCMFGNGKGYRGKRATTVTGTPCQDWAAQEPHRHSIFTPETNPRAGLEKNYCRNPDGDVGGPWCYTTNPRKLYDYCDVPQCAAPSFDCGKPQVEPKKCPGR

With `CCOC(=O)c1ccc(OC(=O)CCCCCN=C(N)N)cc1.CS(=O)(=O)O` [FOY, gabexate mesilate, reference compound] as the compound, how does the “efficacy in the treatment of acute pancreatitis induced in animal models” value [1] read?
The value was “effective to varying degrees”.

And the IC50 [2]?
The IC50 was 9 µM.

What about the IC50 [3] of the same compound?
The IC50 was 1600 nM.

And the IC50 [4]?
The IC50 was 250 nM.

And the IC50 [5]?
The IC50 was greater than 25 µM.

And the IC50 [6]?
The IC50 was 15 µM.

And the IC50 [7]?
Its IC50 is 8 µM.

And the IC50 [8]?
Its IC50 is 6 µM.

Which “IC50 against trypsin, times lower than that for N-acetyl-L-leucyl-L-leucy-L-argininal” value [9] does the source give for `CC(C)C[C@H](NC(=O)[C@@H]1CCC(=O)N1C(=O)OCc1ccccc1)C(=O)N[C@H](C=O)CCCNC(=N)N` [N-benzyloxycarbonyl-L-pyroglutamyl-L-leucyl-L-argininal] here?
The value was “about 7 times”.

With Aprotinin [reference compound] as the compound, how does the Kd [10] read?
Its Kd is 100 nM.

What about the “IC50 tPA” value [2] of the same compound?
The value was “Inact”.

And the “efficacy in the treatment of human acute pancreatitis” value [11]?
The value was “ineffective”.

And the Kd [12]?
Its Kd is 0.03 nM.

What about the IC50 [5] of the same compound?
The IC50 was greater than 25 µM.

What about the IC50 [6] of the same compound?
Its IC50 is 2 µM.

What about the “IC50 Xa” value [7] of the same compound?
Its value is “Inact”.

And the “IC50 Thrombin” value [8]?
Its value is “Inact”.
